In ChEMBL document CHEMBL5055646, “Discovery of novel BTK PROTACs for B-Cell lymphomas” (Eur J Med Chem, 2021):

Assays:
[1] = target: T1, Tyrosine-protein kinase BTK (Homo sapiens, UniProt Q06187); assay: Inhibition of full length N-terminal GST fusion tagged human BTK expressed in baculovirus expression system at 500 nM using FAM-P2 peptide solution as substrate incubated for 10 mins in presence of ATP by microplate reader assay
[2] = target: T1, Tyrosine-protein kinase BTK; assay: Inhibition of full length N-terminal GST fusion tagged human BTK expressed in baculovirus expression system at 50 nM using FAM-P2 peptide solution as substrate incubated for 10 mins in presence of ATP by microplate reader assay relative to control
[3] = target: T1, Tyrosine-protein kinase BTK; assay: Inhibition of full length N-terminal GST fusion tagged human BTK expressed in baculovirus expression system using FAM-P2 peptide solution as substrate incubated for 10 mins in presence of ATP by microplate reader assay
[4] = tested on: Protein cereblon/Tyrosine-protein kinase BTK (Homo sapiens), Q06187+Q96SW2 [C481S]; assay: Protac activity at BTK C481S mutant/CRBN in human TMD8 cells assessed as maximal BTK degradation measured after 1 hr by Western blot analysis relative to control; format: cell-based
[5] = target: T2, Protein cereblon/Tyrosine-protein kinase BTK (Homo sapiens, UniProt Q06187+Q96SW2); assay: Protac activity at BTK/CRBN in human JeKo-1 cells assessed as induction of BTK degradation measured after 1 hr by Western blot analysis; format: cell-based
Target sequence in this assay (Q06187 whole entry): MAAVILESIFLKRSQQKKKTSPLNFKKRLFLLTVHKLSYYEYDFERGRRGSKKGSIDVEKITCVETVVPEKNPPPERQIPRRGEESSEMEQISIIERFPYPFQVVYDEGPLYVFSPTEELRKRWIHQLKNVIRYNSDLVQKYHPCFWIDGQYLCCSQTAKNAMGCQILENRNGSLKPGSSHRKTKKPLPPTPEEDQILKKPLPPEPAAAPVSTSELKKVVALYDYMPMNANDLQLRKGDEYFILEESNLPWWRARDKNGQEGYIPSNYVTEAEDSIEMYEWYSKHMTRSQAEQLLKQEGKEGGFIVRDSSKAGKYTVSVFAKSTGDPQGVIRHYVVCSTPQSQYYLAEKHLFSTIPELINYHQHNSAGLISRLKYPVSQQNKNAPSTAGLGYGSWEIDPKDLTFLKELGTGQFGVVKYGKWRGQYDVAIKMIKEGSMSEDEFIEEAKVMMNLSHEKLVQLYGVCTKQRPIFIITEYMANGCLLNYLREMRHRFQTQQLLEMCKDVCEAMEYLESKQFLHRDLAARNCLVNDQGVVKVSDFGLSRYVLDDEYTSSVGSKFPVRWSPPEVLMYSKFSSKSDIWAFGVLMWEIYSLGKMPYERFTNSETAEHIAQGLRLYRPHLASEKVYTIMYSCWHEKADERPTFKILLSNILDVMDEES
Target sequence in this assay (Q96SW2 whole entry): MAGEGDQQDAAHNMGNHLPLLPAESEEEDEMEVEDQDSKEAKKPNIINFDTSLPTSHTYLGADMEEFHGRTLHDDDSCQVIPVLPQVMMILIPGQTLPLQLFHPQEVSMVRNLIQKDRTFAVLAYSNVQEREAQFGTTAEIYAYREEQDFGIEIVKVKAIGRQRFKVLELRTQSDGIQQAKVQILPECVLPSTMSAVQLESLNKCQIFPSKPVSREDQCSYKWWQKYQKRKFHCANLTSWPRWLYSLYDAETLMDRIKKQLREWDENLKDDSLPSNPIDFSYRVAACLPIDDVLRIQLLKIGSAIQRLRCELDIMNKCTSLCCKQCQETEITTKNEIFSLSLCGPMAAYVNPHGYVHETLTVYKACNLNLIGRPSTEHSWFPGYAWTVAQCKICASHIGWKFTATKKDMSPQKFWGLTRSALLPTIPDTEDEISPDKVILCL

[6] = target: T2, Protein cereblon/Tyrosine-protein kinase BTK; assay: Protac activity at BTK/CRBN in human JeKo-1 cells assessed as induction of BTK degradation at 100 nM measured after 1 hr by Western blot analysis relative to control; format: cell-based
Target sequence in this assay (Q06187 2-659 limits assumed): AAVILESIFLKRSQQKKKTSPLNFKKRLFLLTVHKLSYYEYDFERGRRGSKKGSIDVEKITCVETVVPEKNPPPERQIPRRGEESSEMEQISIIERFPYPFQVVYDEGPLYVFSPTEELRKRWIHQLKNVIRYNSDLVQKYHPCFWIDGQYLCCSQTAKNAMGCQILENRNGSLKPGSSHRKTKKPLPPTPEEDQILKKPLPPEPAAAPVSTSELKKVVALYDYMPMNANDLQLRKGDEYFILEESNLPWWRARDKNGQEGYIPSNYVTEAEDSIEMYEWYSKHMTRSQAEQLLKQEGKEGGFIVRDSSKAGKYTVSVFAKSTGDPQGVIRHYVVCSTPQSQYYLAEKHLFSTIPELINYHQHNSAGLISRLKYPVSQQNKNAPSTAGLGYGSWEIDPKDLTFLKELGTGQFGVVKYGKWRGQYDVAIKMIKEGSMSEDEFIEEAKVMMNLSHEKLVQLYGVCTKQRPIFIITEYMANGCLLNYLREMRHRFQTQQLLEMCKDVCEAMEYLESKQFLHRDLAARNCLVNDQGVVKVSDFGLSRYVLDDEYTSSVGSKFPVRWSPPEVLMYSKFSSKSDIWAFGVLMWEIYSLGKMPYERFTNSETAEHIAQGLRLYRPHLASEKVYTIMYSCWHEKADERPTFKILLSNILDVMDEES
Target sequence in this assay (Q96SW2 whole entry partner): as the sequence (Q96SW2 whole entry) above

[7] = target: T2, Protein cereblon/Tyrosine-protein kinase BTK; assay: Protac activity at BTK/CRBN in human JeKo-1 cells assessed as maximal BTK degradation measured after 1 hr by Western blot analysis relative to control; format: cell-based
Target sequence in this assay (Q06187 2-659 limits assumed): as the sequence (Q06187 2-659 limits assumed) above
Target sequence in this assay (Q96SW2 whole entry partner): as the sequence (Q96SW2 whole entry) above

[8] = target: Protein cereblon/Tyrosine-protein kinase BTK (Homo sapiens, UniProt Q06187+Q96SW2, C481S); assay: Protac activity at BTK C481S mutant/CRBN in human TMD8 cells assessed as induction of BTK degradation measured after 1 hr by Western blot analysis; format: cell-based
[9] = tested on: TMD8; assay: cells; conditions: Homo sapiens, TMD8, 72 h
[10] = Half life in human plasma; format: ADME, cell-free
[11] = tested on: TMD8; assay: cells; conditions: Homo sapiens, TMD8, 72 h; remark: listed apart in the source
[12] = Efflux ratio of apparent permeability from basolateral to apical side over apical to basolateral side in human Caco-2 cells; format: ADME, cell-based
[13] = Apparent permeability across basolateral to apical side in human Caco-2 cells; format: ADME, cell-based
[14] = Apparent permeability across apical to basolateral side in human Caco-2 cells; format: ADME, cell-based

Chain of Protein cereblon/Tyrosine-protein kinase BTK (Homo sapiens, UniProt Q06187+Q96SW2, C481S) (Q06187 2-659 C481S limits assumed, stated change not applied): as the sequence (Q06187 2-659 limits assumed) above, with C480S counted along it
Chain of Protein cereblon/Tyrosine-protein kinase BTK (Homo sapiens, UniProt Q06187+Q96SW2, C481S) (Q96SW2 whole entry, stated change not applied): as the sequence (Q96SW2 whole entry) above
T1 sequence (Q06187 whole entry, the tested form may be a part): as the sequence (Q06187 whole entry) above

Work on `O=C(CNc1ncnc2[nH]cc(C(=O)c3ccc(Oc4ccccc4)cc3Cl)c12)NCCNc1cccc2c1C(=O)N(C1CCC(=O)NC1=O)C2=O` (stereo not drawn) yielded an inhibition [1] of 10.9% and an inhibition [2] of 2.4%.
`CCNC(=O)CNc1ncnc2[nH]cc(C(=O)c3ccc(Oc4ccccc4)cc3Cl)c12` showed an IC50 [3] of 407 nM.
For `O=C(CNc1ncnc2[nH]cc(C(=O)c3ccc(Oc4ccccc4)cc3Cl)c12)NCCOCCOCCOCCOCCNc1cccc2c1C(=O)N(C1CCC(=O)NC1=O)C2=O` (stereo not drawn), the %max [4] was 68.6%, the DC50 [5] was 9.4 nM and the Activity [6] was 55.6%. The IC50 [3] was 2200 nM, the %max [7] was 66.5% and the DC50 [8] was 52.7 nM. For the same compound, the inhibition [1] was 35.6% and the inhibition [2] was 5.6%.
Compound `O=C(CNc1ncnc2[nH]cc(C(=O)c3ccc(Oc4ccccc4)cc3Cl)c12)NCCOCCOCCOCCOCCOCCNc1cccc2c1C(=O)N(C1CCC(=O)NC1=O)C2=O` (stereo not drawn) has a %max [4] of 88.4%, a DC50 [5] of 8.1 nM and an IC50 [9] of 1690 nM. The Activity [6] was 64.2%, the IC50 [3] was 1210 nM and the %max [7] was 72.4%. For the same compound, the half-life [10] was 5.34 h, the IC50 [11] was 63.3 nM and the DC50 [8] was 80.4 nM. The inhibition [1] was 35.5% and the inhibition [2] was 5.9%.
`O=C1CCC(N2C(=O)c3cccc(NCCOCCOCCOCCOCCNC(=O)N[C@H]4CC[C@@H](Nc5ncnc6[nH]cc(C(=O)c7ccc(Oc8ccccc8)cc7Cl)c56)CC4)c3C2=O)C(=O)N1` (stereo partly drawn) gave a %max [4] of 83.5%, a DC50 [5] of 12.1 nM and an IC50 [9] of 290 nM. For the same compound, the Activity [6] was 88.8%, the IC50 [3] was 46.9 nM and the %max [7] was 78%. It also gave an IC50 [11] of 39.5 nM, a DC50 [8] of 37.9 nM and an inhibition [1] of 74.9%. For the same compound, the inhibition [2] was 32.6%.
In the case of `O=C(CNc1ncnc2[nH]cc(C(=O)c3ccc(Oc4ccccc4)cc3Cl)c12)NCCOCCOCCNc1cccc2c1C(=O)N(C1CCC(=O)NC1=O)C2=O` (stereo not drawn), the Activity [6] is reported as 33%, the IC50 [3] is reported as 3780 nM and the inhibition [1] is reported as 21.5%. For the same compound, the inhibition [2] was 7.5%.
Work on `O=C(O)CNc1ncnc2[nH]cc(C(=O)c3ccc(Oc4ccccc4)cc3Cl)c12` yielded an IC50 [3] of 81.4 nM, an inhibition [1] of 85.1% and an inhibition [2] of 44.2%.
Compound `O=C1CCC(N2C(=O)c3cccc(NCCOCCOCCNC(=O)N[C@H]4CC[C@@H](Nc5ncnc6[nH]cc(C(=O)c7ccc(Oc8ccccc8)cc7Cl)c56)CC4)c3C2=O)C(=O)N1` (stereo partly drawn) has an Activity [6] of 22.8%, an IC50 [3] of 15.5 nM and an inhibition [1] of 97.4%. For the same compound, the inhibition [2] was 82.1%.
With `O=C(CNc1ncnc2[nH]cc(C(=O)c3ccc(Oc4ccccc4)cc3Cl)c12)NCCOCCOCCOCCOCCOCCOCCNc1cccc2c1C(=O)N(C1CCC(=O)NC1=O)C2=O` (stereo not drawn) the %max [4] was 84.8%, the DC50 [5] was 8.3 nM and the IC50 [9] was 750 nM. For the same compound, the Activity [6] was 78.7%, the IC50 [3] was 1390 nM and the %max [7] was 92.4%. For the same compound, the IC50 [11] was 104 nM, the DC50 [8] was 52.3 nM and the inhibition [1] was 42.5%. It also gave an inhibition [2] of 10%.
`O=C(CNc1ncnc2[nH]cc(C(=O)c3ccc(Oc4ccccc4)cc3Cl)c12)NCCOCCOCCOCCOCCOCCOCCOCCNc1cccc2c1C(=O)N(C1CCC(=O)NC1=O)C2=O` (stereo not drawn) showed an Activity [6] of 14.7%, an inhibition [1] of 39% and an inhibition [2] of 7%.
`CCOC(=O)CNc1ncnc2[nH]cc(C(=O)c3ccc(Oc4ccccc4)cc3Cl)c12` gave an IC50 [3] of 5970 nM, an inhibition [1] of 10.9% and an inhibition [2] of 4.9%.
Work on `O=C(CNc1ncnc2[nH]cc(C(=O)c3ccc(Oc4ccccc4)cc3Cl)c12)NCCCCNc1cccc2c1C(=O)N(C1CCC(=O)NC1=O)C2=O` (stereo not drawn) yielded an Activity [6] of 24.9%, an inhibition [1] of 9.3% and an inhibition [2] of 1.8%.
For `CCNC(=O)N[C@H]1CC[C@@H](Nc2ncnc3[nH]cc(C(=O)c4ccc(Oc5ccccc5)cc4Cl)c23)CC1`, the IC50 [3] was 25.2 nM.
Work on `O=C1CCC(N2C(=O)c3cccc(NCCCCNC(=O)N[C@H]4CC[C@@H](Nc5ncnc6[nH]cc(C(=O)c7ccc(Oc8ccccc8)cc7Cl)c56)CC4)c3C2=O)C(=O)N1` (stereo partly drawn) yielded an Activity [6] of 6.8%, an IC50 [3] of 23 nM and an inhibition [1] of 96.2%. It also gave an inhibition [2] of 75%.
With `O=C1CCC(N2C(=O)c3cccc(NCCOCCOCCOCCOCCOCCNC(=O)N[C@H]4CC[C@@H](Nc5ncnc6[nH]cc(C(=O)c7ccc(Oc8ccccc8)cc7Cl)c56)CC4)c3C2=O)C(=O)N1` (stereo partly drawn) the %max [4] was 90.7%, the efflux ratio [12] was > 1.4 and the DC50 [5] was 41.9 nM. It also gave an IC50 [9] of 254 nM, a Papp B→A [13] of 7.5 ×10⁻⁶ cm/s and an Activity [6] of 93.7%. For the same compound, the IC50 [3] was 56.4 nM, the Papp A→B [14] was < 5.3 ×10⁻⁶ cm/s and the %max [7] was 93%. For the same compound, the half-life [10] was 3.55 h, the IC50 [11] was 45.7 nM and the DC50 [8] was 42.9 nM. The inhibition [1] was 90% and the inhibition [2] was 58.4%.
With `O=C(CNc1ncnc2[nH]cc(C(=O)c3ccc(Oc4ccccc4)cc3Cl)c12)NCCOCCOCCOCCNc1cccc2c1C(=O)N(C1CCC(=O)NC1=O)C2=O` (stereo not drawn) the DC50 [5] was 28.5 nM, the Activity [6] was 56.2% and the IC50 [3] was 1930 nM. The %max [7] was 67.1%, the inhibition [1] was 21.6% and the inhibition [2] was 8.6%.
With `N[C@H]1CC[C@@H](Nc2ncnc3[nH]cc(C(=O)c4ccc(Oc5ccccc5)cc4Cl)c23)CC1` the IC50 [3] was 4.3 nM, the inhibition [1] was 99.5% and the inhibition [2] was 94.2%.
With `O=C1CCC(N2C(=O)c3cccc(NCCOCCOCCOCCNC(=O)N[C@H]4CC[C@@H](Nc5ncnc6[nH]cc(C(=O)c7ccc(Oc8ccccc8)cc7Cl)c56)CC4)c3C2=O)C(=O)N1` (stereo partly drawn) the %max [4] was 84.3%, the DC50 [5] was 32.3 nM and the Activity [6] was 44.1%. The IC50 [3] was 22.3 nM, the %max [7] was 76.9% and the DC50 [8] was 30.1 nM. For the same compound, the inhibition [1] was 95.2% and the inhibition [2] was 73.5%.
